Usually melting point stands for the temperature of the solid-liquid transition.

The values below come from a melting point compilation (Tetko et al.; mined from patent text by program, amines drawn as free bases though some values may be those of a salt).

As to `COC(=O)C(=CN(C)C)N(C)c1cc(-c2ccc(Cl)c(Cl)c2)n(C)n1`, the melting point is 113 to 114 °C.

In turn, `C#CCOc1cccc(-c2nc3ncccc3[nH]2)c1OC` came in with a melting point of 262 °C.

With `CCCCCCCCOc1ccc(-c2cnc(-c3ccc(O)cc3)nc2)cc1`, the melting point was 137 °C.

Molecule `CN(CC(=O)O)C(=O)c1c(N)cccc1I` showed a melting point of 147 to 149 °C.

In the case of `COc1ccc(C(=O)Nc2ccccc2)cc1NCc1ccccc1F`, the melting point fell in the range of 142 to 144 °C.

With `COC(=O)[C@H](Cc1c[nH]c2ccccc12)NC(=O)CCC(=O)[C@H](Cc1ccccc1)NC(=O)OC(C)(C)C`, the melting point fell in the range of 54 to 57 °C. With `Cc1ccc(S(=O)(=O)C#CBr)cc1`, the melting point lay in the range of 99 to 101 °C.

In turn, `Nc1nc(-c2ccc(CCN3CCN(c4cccc5cccnc45)CC3)cc2)cs1` came in with a melting point greater than 225 °C. In the case of `Cc1ncccc1C(N)=O`, the melting point was in the range of 160 to 163 °C. Molecule `O=C1COC(Nc2ccc(C(O)(C(F)(F)F)C(F)(F)F)cc2)=N1` showed a melting point of 272 to 274 °C. `CC(C)(CF)C(=O)C(Br)Oc1ccc(Cl)cc1` (stereo unspecified) returned a melting point of 73 to 75 °C.

In turn, `CC(C)(C)OC(=O)Nc1ccc(C#Cc2ccc(OC(F)(F)F)cc2)cc1NC(=O)CC(=O)c1cccc(C#N)c1` returned a melting point of 152 to 154 °C.

In turn, `Clc1cccc2c(CN3CC=C(/C=C/c4ccccc4)CC3)n[nH]c12` showed a melting point of 223 to 224 °C.

In turn, `CCOC(=O)C(=O)Nc1nc(CN2CCN(C(c3ccccc3)c3ccccc3)CC2)cs1` displayed a melting point of 125 to 128 °C. Next, `COC(=O)C1CCC2ON=C(c3ccc(Cl)cc3)C2CC1` (stereo unspecified): 150 to 185 °C; `CC1CC(N)=NN1c1ccc(Cl)cc1Cl` (stereo unspecified): 109 to 111 °C.

On to `COC(=C[N+](=O)[O-])NCc1cccnc1`, for which the melting point lay in the range of 129 to 130 °C. Next, `O=C1N(Cc2ccc(C(F)(F)F)o2)c2ccc(F)cc2C1(CO)c1cc2c(cc1O)OCO2` (stereo unspecified): 92 to 95 °C; `CC(C)OC(=O)c1cc(-n2c(=O)n3n(c2=S)COCC3)c(F)cc1Cl`: 67 to 69 °C; `COC(OCCc1nc(C(C)C)c(Sc2cc(Cl)cc(Cl)c2)n1C)(c1ccccc1)c1ccccc1`: 107 to 108 °C.

Regarding `CC(C)[C@H](NC(=O)[C@H](Cc1ccccc1)NC(=O)c1ccccc1)C(=O)O`, the melting point was determined as 191 °C. In the case of `Cn1ccnc1-c1ccc(/C=C/c2ccccc2F)cc1` it was 60 to 61 °C; in that of `O=C1c2ccc(=O)[nH]c2CC2CCCCC12` (stereo unspecified), 301 to 303 °C; in that of `Clc1ccc2c(c1)N=C(N1CCN[C@@H](Cc3ccccc3)C1)c1ccccc1N2`, 79 to 92 °C. Next, `Cc1nc2c(N)nc3ccccc3c2n1CCCCNC(=O)C1CCCC1`: 169 to 170 °C; `CCOC(=O)c1cc2c(C)c(C)cc(N(CC)S(=O)(=O)c3cccs3)c2[nH]1`: 134 to 135 °C.

`Cc1cc(N2CCNCC2)ccn1` returned a melting point of 93 to 94 °C.

`N#Cc1cnc2cnc(F)cc2c1Oc1ccc(Cl)cc1F`: the melting point lay within 186 to 188 °C. On to `S=C(NCCC1=CCCCC1)Nc1ccccn1`, for which the melting point lay within 153 to 155 °C. In the case of `O=C(Nc1ccccc1)OCc1ccccc1` it was 92 to 96 °C. Next, `Cc1nc2c(s1)CN=C(c1ccccc1F)c1cc(Cl)ccc1-2`: 147 to 149 °C; `CCCN(CCC)CC1CCCN(CCNC(=O)N2c3ccccc3NC(=O)c3c2ccn3C)C1` (stereo unspecified): 153 to 155 °C.

On to `C=C(C(=O)OC)C(=O)c1ccc(OC)cc1`, for which the melting point was in the range of 75 to 76 °C. `O=C1C=C(c2cc(F)c(Br)cc2F)CC1`: the melting point lay within 129 to 131 °C. In the case of `C[C@H](CO)CN1CCC(c2noc3cc(F)ccc23)CC1` it was 119 to 121 °C; in that of `CCCC(CCC)C(=O)NCC(=O)NCCCCCCNC(=O)n1cc(F)c(=O)[nH]c1=O`, 111 to 112 °C. On to `CC(=O)CC(=O)N1CCc2cc(C(O)(C(F)(F)F)C(F)(F)F)ccc21`, for which the melting point lay in the range of 150 to 151 °C. In the case of `CCOC(=O)Cc1nc(-c2ccccc2)oc1C(C)C` it was 37 to 38 °C. Molecule `CCOC(=O)CNC(=O)Oc1cccc2ccc(C)nc12` gave a melting point of 118 to 120 °C. In the case of `O=C1CNc2cc(F)ccc2N1` it was 176 to 178 °C; in that of `O=C1c2cc(Br)ccc2-n2c1nc1ccccc1c2=O`, 288 to 290 °C; in that of `CCS(=O)(=O)Nc1nc(CN2CCC(OC(c3ccccc3)c3ccccc3)CC2)cs1`, 190 to 191 °C. Molecule `CN1CC(O)c2cc(S(N)(=O)=O)sc2S1(=O)=O` (single isomer, unassigned; (+)) returned a melting point of 168 °C.

In the case of `CC(O)c1cccc(-c2ccc3nc(-c4ccc(Cl)cc4)cn3c2)c1` (stereo unspecified), the melting point lay within 168 to 170 °C. The molecule `C/C(O)=C(\C#N)C(=O)Sc1ccc(Cl)cc1` gave a melting point of 91 to 94 °C. Next, `CCc1ccc(COc2ccc(CC(NC(=O)c3cc4cc(-c5ccc(Cl)cc5)ccc4s3)C(=O)O)cc2)cc1` (stereo unspecified): 205 °C; `O=C(c1ccccc1)N1CCC(O)(c2ccccc2Cc2ccccc2)C1` (stereo unspecified): 113 to 116 °C. In the case of `O=C(c1ccc(F)cc1)N1CCN(S(=O)(=O)c2ccc(Nc3ccnc4cc(Cl)ccc34)cc2)CC1` it was 235 to 237 °C.

For the molecule `COc1ccc2c(c1)C(=O)C(=Cc1cccc([N+](=O)[O-])c1)C(C)(C)O2`, the melting point lay in the range of 103 to 105 °C.

Turning to `CC(=O)Nc1ccc2c(c1)C(c1ccccc1F)=NCc1cnc(C)n1-2`, the melting point lay in the range of 326 to 331 °C. `Cn1cc(-c2cc3nccnc3[nH]2)cn1` returned a melting point of 232 to 234 °C. With `COc1ccc(C(=O)Nc2nc3cc4c(cc3[nH]2)NC(=O)C4(C)C)cc1`, the melting point is greater than 300 °C.

`CCOC(=O)C=C(C)c1ccc(-c2ccc(Cl)cc2)cc1`: the melting point is 91 to 94 °C.

In turn, `CC(=O)CC(=O)NCCNC(=O)OCc1ccccc1` yielded a melting point of 116 to 118 °C. In the case of `CN(C)CCCCNC(=O)c1cccc(-c2nnc(CSCCOc3ccccc3)o2)c1` it was 38 to 42 °C; in that of `N#Cc1cc(Br)c(O)c(Cc2cc(F)cc(Cc3cc(C#N)cc(Br)c3O)c2O)c1`, 240 °C; in that of `CC1CC(N)=NN1c1cccc(Cl)n1` (stereo unspecified), 105 to 107 °C.

As for `CC(=O)Oc1ccc2c(c1)CC1(C)Cc3ccccc3C1=CC2C` (stereo unspecified), the melting point was 131 to 133 °C.

As to `CC(C)(C)NC(=O)c1nc(Cl)c(Cl)[nH]1`, the melting point was determined as 218 °C. Next, `C[C@@]1(NC(=O)c2cc3cccc4c3n2CCC4)C(=O)N(c2ccccc2F)c2ccccc21`: 194 to 195 °C; `CSc1ccc(C(=O)C#CCO)cc1`: 73 to 74 °C; `CC(C)(C)OC(=O)N1CCCC1C(=O)Nc1ccc(-n2nc(C(F)(F)F)cc2C(F)(F)F)cc1` (stereo unspecified): 70 to 72 °C.

Consider `Nc1ccc(F)cc1CS(=O)c1nc2ccccc2[nH]1` (stereo unspecified), for which the melting point is 184 to 185 °C. As for `O=C(Nc1ccccc1)N1C(=O)C2(CCCCC2)NC12CCCCC2`, the melting point is 129 to 130 °C.

In turn, `CCOC(=O)C(C)OCC#Cc1nc(Cl)ccc1N` (stereo unspecified) showed a melting point of 70 °C. In the case of `O=C(CCCc1ccccc1)N[C@H](Cc1ccccc1C(F)(F)F)[C@@H](O)c1ccc(F)cc1` (racemic) it was 161 to 162 °C. Next, `O=C1CC(c2ccccc2)C(c2ccccc2)=NN1C(=O)Nc1ccc(C(F)(F)F)cc1` (stereo unspecified): 164 to 166 °C. Next, `CN(Cc1ccc(NC(=O)C2=Cc3cc(-c4ccc(Cl)cc4)ccc3S(=O)(=O)CC2)cc1)C1CCC(=O)CC1`: 197 to 200 °C; `O=C(O)CNC(=O)C(Cc1ccccc1)P(=O)(O)O` (stereo unspecified): 250 °C; `N#Cc1c(-c2ccc(Cl)cc2)c(-c2ccc(Cl)cc2)n[nH]c1=O`: 271 to 272 °C. The molecule `COC(=O)CC(O)CP(=O)(C#Cc1c(C(C)C)c2n(c1-c1ccc(F)cc1)CCCC2)OC` (stereo unspecified) returned a melting point of 100 to 101 °C. `CCCCS(=O)(=O)NC(=O)CCc1cc(OC(C)C)nn1Cc1ccc(Cl)cc1Cl` yielded a melting point of 133 to 134 °C. In the case of `O=C1COc2cc3[nH]c(C(=O)O)cc3cc2N1` it was 231 to 237 °C; in that of `OC(CCCl)COc1ccc(Br)cc1` (stereo unspecified), 75 to 78 °C; in that of `CN1CCN(C2=Cc3cc(Cl)ccc3Oc3ccccc32)CC1`, 119 to 121 °C. Next, `N#CN1CCC(=C2c3ccccc3Oc3ccc(Cl)cc32)CC1`: 148 to 150 °C. In the case of `O=C(Nc1ccc(CCCCC2(C(=O)NCC(F)(F)F)c3ccccc3-c3ccccc32)nc1)c1ccccc1` it was 109 to 113 °C; in that of `CCCCCN1C(=O)C2CC2(c2ccc(N)cc2)C1=O` (stereo unspecified), 113 to 115 °C. Consider `Nc1ccc(-c2cc3ccccn3c2C(=O)CCC(=O)O)cc1`, for which the melting point is 86 to 88 °C. `C=Cc1ccc2sc(S(N)(=O)=O)cc2c1` came in with a melting point of 168 to 170 °C. Next, `NNC(=O)c1cnc2c(=O)[nH]c3ccccc3n2c1=O`: greater than 300 °C.

Molecule `CC(C)(C)OC(=O)c1nc(-c2ccc(Cl)cc2Cl)n(-c2ccc(Cl)cc2)c1S(C)(=O)=O` gave a melting point of 130 °C.

With `Cc1c(O)cc(N2C(=O)c3ccccc3C2=O)cc1C(=O)O`, the melting point is greater than 250 °C. `CCCCCNc1cc(C(=O)O)cc(S(N)(=O)=O)c1Oc1ccccc1` registered a melting point of 223 to 224 °C. In turn, `O=c1c(Br)c(Br)cnn1Cc1ccccc1` came in with a melting point of 95 to 96 °C.

The molecule `COCOCc1nc(N)c2ncc(OC)nc2n1` showed a melting point of 193 to 195 °C. `CCOC(=O)c1cnn(-c2c(Cl)cc(Cl)cc2Cl)c1C` came in with a melting point of 112 to 113 °C. For the molecule `COCCNC(=O)c1cccc2c1C1(COc3cc4c(cc31)OCCO4)C(=O)N2C` (stereo unspecified), the melting point lay within 97 to 100 °C. In the case of `CCN(CC)c1nsc(NC(=O)NC)c1C(N)=O` it was 195 to 197 °C; in that of `Cn1c(=O)n(-c2cc([N+](=O)[O-])c(Cl)cc2F)c(=S)n1C`, 146 °C; in that of `COc1ccc(CS[C@H]2C[C@@H](C(=O)N3CCN(CCO)CC3)N(C(=O)OCc3ccc([N+](=O)[O-])cc3)C2)cc1`, 140 to 141 °C.
